Assay results published in patent US20090053294A1, “Anti Mineralocorticoid Therapy of Infection” (priority 2005, published 2009).

Columns and labels:
progesterone receptors = biological target: T1, progesterone receptors (Homo sapiens, UniProt P06401); settings: cited from earlier work
T1 sequence (P06401 1-933): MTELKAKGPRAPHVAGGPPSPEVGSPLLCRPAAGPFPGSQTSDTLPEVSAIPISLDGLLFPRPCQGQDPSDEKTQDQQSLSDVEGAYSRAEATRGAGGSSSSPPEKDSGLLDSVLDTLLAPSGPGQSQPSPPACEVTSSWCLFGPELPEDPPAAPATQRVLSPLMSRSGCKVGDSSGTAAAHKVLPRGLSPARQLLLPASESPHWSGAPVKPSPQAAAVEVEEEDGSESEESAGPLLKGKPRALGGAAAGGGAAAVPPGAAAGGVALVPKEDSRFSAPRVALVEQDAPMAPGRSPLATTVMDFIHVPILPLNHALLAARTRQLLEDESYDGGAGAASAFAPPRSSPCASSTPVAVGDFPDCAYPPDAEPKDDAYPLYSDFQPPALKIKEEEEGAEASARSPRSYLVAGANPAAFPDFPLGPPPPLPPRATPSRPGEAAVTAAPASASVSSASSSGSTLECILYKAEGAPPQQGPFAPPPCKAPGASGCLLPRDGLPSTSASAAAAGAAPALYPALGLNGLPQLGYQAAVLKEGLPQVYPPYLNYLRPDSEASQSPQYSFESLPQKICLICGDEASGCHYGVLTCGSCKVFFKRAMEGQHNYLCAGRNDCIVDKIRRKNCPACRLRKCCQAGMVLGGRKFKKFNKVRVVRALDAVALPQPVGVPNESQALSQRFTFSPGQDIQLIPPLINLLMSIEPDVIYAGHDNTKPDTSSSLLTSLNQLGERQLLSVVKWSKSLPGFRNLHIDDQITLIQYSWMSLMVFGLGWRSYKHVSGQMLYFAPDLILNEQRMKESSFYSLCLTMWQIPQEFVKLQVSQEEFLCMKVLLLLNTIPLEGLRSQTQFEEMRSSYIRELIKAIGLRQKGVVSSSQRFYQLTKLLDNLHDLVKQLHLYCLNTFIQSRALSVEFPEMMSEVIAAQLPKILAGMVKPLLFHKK

[1] = 50 mg dose; cited from earlier work
[2] = test system: monocytotropic HIV-1 isolates; assay: Anti-HIV activity in fresh human monocyte-macrophages (p24 ELISA); assay type: cell-based; settings: MOI 0.1, p24 ELISA day 7 post-infection
Protocol: (§1) For isolation of adherent cells, 3×10^6 non-PHA stimulated peripheral blood cells are resuspended in Hanks buffered saline (with calcium and magnesium) supplemented with 10% human AB serum. The cells are placed in a 96-well microtiter plate at 37° C. for 2 hours. Non-adherent cells are removed by vigorously washing six times. The adherent cells are cultured for 7 days in RPMI 1640 tissue culture medium with 15% fetal bovine serum. The cultures are carefully monitored for confluency during this incubation period. Infection of the cells is performed with monocytotropic HIV-1 isolates. High titer pools of each of these viruses are harvested from Infected cultures of peripheral blood adherent cells and frozen in 1.0 ml aliquots at […]. […] Compounds to be evaluated in the monocyte-macrophage assay are added to the monolayers shortly before infection in order to maximize the potential for identifying active compounds.
(§2) At 2 days post-infection, the medium is decanted and the cultures washed twice with complete medium in order to remove excess virus. […] Control curves are generated in each assay to accurately quantitate the amount of capsid protein in each sample. Data is obtained by spectrophotometric analysis at 450 nm using a Molecular Devices Vmax plate reader. P24 concentrations are calculated from the optical density values by use of the Molecular Device software package Soft Max.

[3] = test system: fresh human peripheral blood lymphocytes (PBL); assay type: cell-based
[4] = test system: fresh human monocyte-macrophages; assay: Cytotoxicity in monocyte-macrophages (XTT staining); assay type: cell-based; settings: XTT staining day 7 post-infection
Protocol: as §1, §2

HIV-1 = settings: PBL, MOI 0.2, day 7, RT activity in supernatant
Protocol: Fresh human peripheral blood lymphocytes (PBL) are isolated from voluntary Red Cross donors, seronegative for HIV and HBV. Leukophoresed blood is diluted 1:1 with Dulbecco's phosphate buffered saline (PBS) and layered over 14 mL of Ficoll-Hypaque density gradient in a 50mi centrifuge tube. Tubes are then centrifuged for 30 minutes at 600 Xg. Banded PBLs are gently aspirated from the resulting interface and subsequently washed 2× with PBS by low speed centrifugation. After final wash, cells are enumerated by trypan blue exclusion are re-suspended at 1×10^7/ml in RPMI 1640 with 15% fetal bovine serum (FBS), 2 mM L-glutamine, 4 ug/ml PHA-P and allowed to incubate for 48-72 hours at 37″C. After incubation, PBLs are centrifuged and reset in RPMI 1640 with 15% FBS, 2 mM L-glutamine, 100 U/ml penicillin, 100 ug/ml streptomycin, 10 ug/ml gentamycin, and 20 U/ml recombinant human IL-2. PBLs are maintained in this medium at a concentration. of 1-2×10^6/ml with biweekly medium changes, until use in assay protocol. […]
In the standard PBL assay (MOI: 0.2), the assay is ended on day 7 following collection of cell free supernatant samples for reverse transcriptase activity assay. […] Opti-Fluor O is added to each filter mat, and incorporated radioactivity is quantitated utilizing a Wallac 1450 Microbetaplus liquid scintillation counter. […]

[5] = in vivo; cited from earlier work

SMILES: COC(=O)[C@@H]1CC2=CC(=O)CC[C@]2(C)[C@@]23O[C@@H]2C[C@@]2(C)[C@@H](CC[C@@]24CCC(=O)O4)[C@H]13 [Epoxymexrenone, epoxymexrenone]
- binding affinity for progesterone receptors (progesterone receptors): reduced
- Na+/K+ effect [1]: equipotent with spironolactone

SMILES: C[C@]12CCC(=O)C=C1C=C[C@@H]1[C@@H]2CC[C@@]2(C)[C@H]1CC[C@@]2(O)CCC(=O)O [potassium canrenoate]
- HIV-1 levels in macrophages [2]: decreased in a dose dependent fashion
- health / cell growth of T-lymphocyte cultures [3]: remain healthy at all concentrations
- cell viability in macrophages [4]: little effect on cell viability
- % HIV-1 levels / viral replication in T-lymphocyte cultures (HIV-1): decreased in a dose dependent manner

SMILES: CC(=O)S[C@@H]1CC2=CC(=O)CC[C@]2(C)[C@H]2CC[C@@]3(C)[C@@H](CC[C@@]34CCC(=O)O4)[C@H]12 [spironolactone, 17-hydroxy-7-alpha-mercapto-3oxo-17-alpha-pregn-4ene-21-carboxylic acid gamma-lactone acetate]
- extent of metabolism [5]: extensively metabolised
- health / cell growth of T-lymphocyte cultures [3]: remain healthy at all concentrations
- % HIV-1 levels / viral replication in T-lymphocyte cultures (HIV-1): decreased in a dose dependent manner
